Laboratory results taken from patent publication US11207277B2, “Methods of treating diseases associated with high-fat diet and vitamin a deficiency using retinoic acid receptor agonists” (Cornell University, priority 2013, dated 2021).
Entries after “also recorded” stand apart in the source; their conditions may differ.

Legend:
TNF-α [1] = test: Semi-quantitative PCR liver, TNF-α; type: in vivo; conditions: HF diet mice + AC261066 or CD1530
Excerpt: (§1) WT male C57/BL6 male mice were maintained on either a standard laboratory chow-fed diet (CFD) with 13% kcal fat, (diet #5053, Lab Diet, Inc, St. Louis, Mo.) or a high fat, western style diet (HFD) with 60% kcals from fat, (diet #58126, Lab Diet, Inc., St. Louis, Mo.) for 4 months. One month after the start of the high fat diet treatment, the high fat diet group was further split into 2 groups for 3 months: i) high fat diet and the drinking water containing 1% DMSO; ii) high fat diet and the drinking water containing 1.5 mg/100 ml AC261066, a specific RARβ agonist. Then mice were sacrificed by cervical dislocation. Blood and various tissue samples were harvested.
(§2) Total RNA was extracted from mouse tissues using TRIzol reagent (Life technologies) and (1 μg) was used to synthesize cDNA. cDNA synthesis was performed at 42° C. for 1 h in a final volume of 20 μl using qScript (Quanta, MD). Semi-quantitative PCR were performed Taq DNA polymerase (Invitrogen, CA). Three step PCR was run as follows: 94° C. for 30 s, 58-64° C. for 45 s for primer annealing and 72° C. for 1 min for primer extension. The number of cycles for each primer pair for amplification in the linear range was determined experimentally. PCR products were resolved 2% agarose gels and visualized by staining with ehtidium bromide. Primers for gene expression used were as follows: […]

hepatic lipids = test: Oil red O staining of liver sections; type: in vivo; conditions: HF diet mice + AC261066 or CD1530; vs HF-vehicle
Excerpt: as §1
Staining. Fresh mouse liver samples were embedded in optimal cutting temperature (OCT) medium and immediately frozen to −70 centigrade. Cryosections were then fixed in 4% formaldehyde for 1 hr at room temp. Slides were then rinsed three times in deionized water (dH2O) for 30 s, followed by treatment with 0.5% Triton X-100 in PBS for 5 min. Sections were then washed three times with PBS for 5 min. Samples were with incubated 2% bovine serum albumin (BSA) for 30 min at room temperature to block for unspecific antibody binding. Following blocking, sections were washed three times in PBS and incubated with mouse monoclonal antibody against α-SMA (1:500) (Dako, Inc) for 24 h at 4° C. […]

renal lipid accumulation = test: Hematoxylin and eosin staining of kidney sections; type: in vivo; conditions: HF diet mice + AC261066 or CD1530; vs HF-vehicle
Excerpt: as §1
At sacrifice, fresh mouse liver samples were fixed in 4% formaldehyde solution for 24 hr and embedded in paraffin blocks. Kidney paraffin sections were cut 5 microns thick and mounted on glass slides and stained with hematoxylin and eosin (H and E) using standard protocols.

RARβ2 = test: Semi-quantitative PCR of pancreatic tissue, LRAT -/- vitamin A deficient mice; type: in vivo; conditions: AC261066 for 8 weeks
Procedure: FIG. 10. Gene expression of RARβ2 in pancreatic tissue from LRAT −/− vitamin A sufficient mice (VAS, normal control diet), LRAT −/− vitamin A deficient (VAD) mice, and LRAT −/− vitamin A deficient (VAD) mice treated with AC261066 for 8 weeks.
as §2, with “resolved on” for “resolved”

MCP-1 = test: Semi-quantitative PCR liver, MCP-1; type: in vivo; conditions: HF diet mice + AC261066 or CD1530
Excerpt: as §1, §2

TNF-α [2] = test: Semi-quantitative PCR kidney, TNF-α; type: in vivo; conditions: HF diet mice + AC261066
Excerpt: as §1
as §2, with “(Invitrogen.” for “(Invitrogen,”, “resolved on” for “resolved”

[3] = system: retinyl palmitate and retinol; test: HPLC analysis of liver retinoids; type: in vivo, mice
Excerpt: as §1
The frozen liver tissue samples (˜100 mg) were homogenized in 500 μl cold phosphate-buffered saline (PBS). In addition, 100 μl serum was diluted in cold PBS to total volume of 500 μl. Retinyl acetate was added to each sample before the retinoid extraction for the calculation of extraction efficiency. The retinoids were extracted into 350 μl of organic solution (acetonitrile/butanol, 50:50, v/v) in the dark. The high performance liquid chromatography (HPLC) was performed using a Waters Millennium system (Waters). Each sample (100 μl of the 350 μl) was loaded onto an analytical 5-μm reverse phase C18 column (Vydac, Hesperia, Calif.) and eluted at a flow rate of 1.5 ml/min. Two mobile phase gradient systems were used. Retinoids were identified by HPLC based on two criteria: an exact match of the retention times of unknown peaks with those of authentic retinoid standards and identical UV light spectra (220-400 nm) of unknowns against spectra from authentic retinoid standards during HPLC by the use of a photodiode array detector. The amounts of retinoids were calculated from the areas under the peaks detected at the wave-length of 325 nm. The levels of retinol and retinyl esters were normalized to the tissue weight.

4-hydroxynonenal (4-HNE) = test: 4-HNE staining of liver sections; type: in vivo, mice; conditions: HF diet + AC261066 vs HF diet group
Excerpt: as §1
Paraffin-embedded sections (from two to four mice per group) were deparaffinized and rehydrated, and antigen retrieval was performed using an antigen unmasking solution (Vector Laboratories, H-3300). After quenching endogenous peroxidase with 3% H2O2, the tissue sections were blocked with the blocking reagent (from the M.O.M. kit from Vector Laboratories). Then, tissue sections were incubated with a 4-HNE antibody (1:400; mouse monoclonal antibody; Abcam, ab48506) overnight at 4° C. The sections were then incubated with secondary antibodies (1:200, anti-mouse IgG from the M.O.M kit). As a negative control, sections were stained without incubation with primary antibodies. […]

[4] = HF diet mice + AC261066 or CD1530 vs controls

CCCCOCCOc1nc(-c2ccc(C(=O)O)c(F)c2)sc1C [AC261066]
mRNA levels of TNF-α in liver (TNF-α [1]): significantly diminish | hepatic lipid accumulation (oil red O) (hepatic lipids): marked diminished hepatic lipid accumulation | renal lipid infiltration/accumulation (H and E) (renal lipid accumulation): diminished renal lipid accumulation; also recorded: markedly decreased renal lipid infiltration | RARβ2 mRNA levels in pancreas (RARβ2): increased the RARβ2 mRNA levels | mRNA levels of MCP-1 in liver (MCP-1): decreases levels of inflammatory proteins MCP-1 and TNF alpha | mRNA levels of TNF-α in kidney (TNF-α [2]): reduces the levels of TNF-alpha | higher levels of retinyl palmitate in the livers compared to HF-vehicle treated mice ([3]; HF diet mice + AC261066): 55% | liver retinol compared to controls [3, 4]: significantly lowered | liver retinyl palmitate compared to controls [3, 4]: significantly lowered | vitamin A deficiency in liver caused by high fat diet ([3]; HFD+AC261066): partially reversed | 4-HNE levels (oxidative stress) in liver (4-hydroxynonenal (4-HNE)): reduces oxidative stress and ROS; also recorded: lower 4-HNE levels than those from the high fat diet group
